“Also recorded” adds a separate entry of the source. Where two headings read alike, the source gives them in different places.
What was measured:
[1] = molecular target: norepinephrine transporter (Homo sapiens, UniProt P23975); test: LeadProfilingScreen, single target; format: binding; details: Transporter, Norepinephrine (NET), hum, 10 μM
Procedure: Evaluation of off-target effects. Off target effects of lead molecules of interest were evaluated using the LeadProfilingScreen commercial assay at Eurofins Panlabs (Bothell, Wash.). Reference standards were run as an integral part of each assay to ensure the validity of the results obtained. Assay results are presented as the percent inhibition of specific binding or activity (for n=2 replicates) for the probe compound tested at a concentration of 10 μM. Details regarding the individual assays and methods are provided in Supplementary Information File 51.
DU003 & DU011 are biologically selective. DU003 and DU011 were submitted to the Eurofins Panlabs LeadProfilingScreen to assess off-target pharmacology 1421. […] In review of PubChem data, DU011 (CID23602075) is reported to have shown activity in only 21 of 467 (4.5%, as of Sep. 5, 2013) bioassays in which it was tested (assays unrelated to the current project). Per PubChem, DU003 (CID18109210) is reported to have shown activity in only 5 of 427 (1.2%, as of Sep. 5, 2013) bioassays in which it was tested (assays unrelated to the current project).

panel of 68 receptors [2] = molecular target: panel of 68 receptors (Rattus norvegicus, UniProt P15207); details: Androgen (Testosterone) AR, rat, 10 μM
panel of 68 receptors [3] = molecular target: panel of 68 receptors (Homo sapiens, UniProt P41143); details: Opiate δ1, (OP1, DOP), hum, 10 μM
panel of 68 receptors [4] = molecular target: panel of 68 receptors (Homo sapiens, UniProt P35408); details: Prostanoid EP4, hum, 10 μM
panel of 68 receptors [5] = molecular target: panel of 68 receptors (Homo sapiens, UniProt P25100); details: Adrenergic α1D, hum, 10 μM
E. coli UTI89 = test: Human serum sensitization (MTT); format: cell-based, Escherichia coli; details: 50 μM compound, p=0.0067 versus control; listed as DU011
Procedure: Human serum sensitization by capsule inhibitor treatment. Overnight cultures of UTI89 were diluted 1:100 and grown with or without 50 μM compound for approximately 1.5 hrs on a shaker at 37° C. Then 25 μL of anonymous, non-identified, sterile filtered pooled human serum (purchased from Equitech Bio) was added per 100 μL of growth media. This was returned to the shaker for another 3 hrs, after which 20 μL of 5 mg/mL MTT (3-(4,5-Dimethylthiazol-2-yl)-2,5-diphenyltetrazolium bromide) was added. MTT is reduced to purple formazan by bacterial reductase enzymes, thus measuring viable bacteria. This was shaken for another 15 min at 37° C. The sample was spun to remove the growth media, followed by two washes with PBS. The formazan crystals were dissolved in 100 μL of DMSO and measured at OD570.

[6] = Hepatic microsome stability, mouse; format: in vitro ADME; details: 37° C.
E. coli K1 strain UTI89 = test: microbe, parasite or virus in culture; details: for Selectivity index (CC50/IC50): versus bladder 5637 cells
Summary of the method: (§1)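 UTI89 cultures in LB with 0.5% DMSO were preincubated 2 hr at 37 °C with compounds (100 μM in screen), then with K1F phage a further 2 hr. Viability was read as Alamar Blue fluorescence. Phage-lysis inhibition is relative to plate bacterial controls; IC50 by 4-parameter fit locked at 0 and 100.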

in vitro = details: human (5637 cells, CC50), Escherichia coli (UTI89, IC50), Fold Selective (CC50/IC50)
Summary of the method: as §1

Chain of norepinephrine transporter (P23975 whole entry): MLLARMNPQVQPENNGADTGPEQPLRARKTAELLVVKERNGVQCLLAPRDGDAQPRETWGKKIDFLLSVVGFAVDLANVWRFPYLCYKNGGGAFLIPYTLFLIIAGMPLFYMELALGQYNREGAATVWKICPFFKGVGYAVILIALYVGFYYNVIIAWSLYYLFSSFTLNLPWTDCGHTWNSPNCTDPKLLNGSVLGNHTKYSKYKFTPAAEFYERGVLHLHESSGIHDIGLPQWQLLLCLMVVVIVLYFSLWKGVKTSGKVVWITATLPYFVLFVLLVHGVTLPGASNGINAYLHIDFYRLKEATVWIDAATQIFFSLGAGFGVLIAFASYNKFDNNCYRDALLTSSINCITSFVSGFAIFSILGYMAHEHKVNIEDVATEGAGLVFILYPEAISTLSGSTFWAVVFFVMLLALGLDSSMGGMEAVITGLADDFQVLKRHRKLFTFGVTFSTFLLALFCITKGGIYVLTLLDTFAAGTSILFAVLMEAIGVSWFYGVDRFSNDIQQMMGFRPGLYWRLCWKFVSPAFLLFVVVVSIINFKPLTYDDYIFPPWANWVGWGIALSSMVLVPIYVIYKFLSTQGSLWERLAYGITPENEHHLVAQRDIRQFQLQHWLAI
Chain of panel of 68 receptors (Rattus norvegicus, UniProt P15207) (P15207 whole entry S389L): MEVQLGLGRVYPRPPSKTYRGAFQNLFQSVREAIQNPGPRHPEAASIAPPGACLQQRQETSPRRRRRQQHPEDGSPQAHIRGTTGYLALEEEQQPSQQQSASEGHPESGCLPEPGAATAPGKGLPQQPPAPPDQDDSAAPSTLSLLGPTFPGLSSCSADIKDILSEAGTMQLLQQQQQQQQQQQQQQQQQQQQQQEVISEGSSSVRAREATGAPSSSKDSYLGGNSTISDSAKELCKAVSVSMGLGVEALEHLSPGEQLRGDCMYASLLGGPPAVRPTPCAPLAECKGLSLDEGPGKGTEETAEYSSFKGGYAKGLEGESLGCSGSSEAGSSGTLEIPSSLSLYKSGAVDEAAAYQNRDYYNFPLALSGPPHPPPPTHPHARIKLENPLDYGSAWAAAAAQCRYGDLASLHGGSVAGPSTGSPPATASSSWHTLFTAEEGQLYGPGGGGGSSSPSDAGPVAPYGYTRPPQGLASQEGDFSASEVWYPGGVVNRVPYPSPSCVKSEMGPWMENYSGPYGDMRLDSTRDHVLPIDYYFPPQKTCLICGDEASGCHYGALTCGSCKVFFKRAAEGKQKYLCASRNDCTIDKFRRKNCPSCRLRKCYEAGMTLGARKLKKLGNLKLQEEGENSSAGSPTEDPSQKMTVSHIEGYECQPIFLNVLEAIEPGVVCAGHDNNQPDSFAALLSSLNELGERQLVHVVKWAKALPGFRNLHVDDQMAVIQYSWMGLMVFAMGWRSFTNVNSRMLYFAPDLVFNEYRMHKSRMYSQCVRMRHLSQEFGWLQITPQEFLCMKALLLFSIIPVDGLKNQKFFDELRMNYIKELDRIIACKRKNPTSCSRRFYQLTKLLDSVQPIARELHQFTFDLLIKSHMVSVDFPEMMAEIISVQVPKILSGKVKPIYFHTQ
Chain of panel of 68 receptors (Homo sapiens, UniProt P41143) (P41143 whole entry): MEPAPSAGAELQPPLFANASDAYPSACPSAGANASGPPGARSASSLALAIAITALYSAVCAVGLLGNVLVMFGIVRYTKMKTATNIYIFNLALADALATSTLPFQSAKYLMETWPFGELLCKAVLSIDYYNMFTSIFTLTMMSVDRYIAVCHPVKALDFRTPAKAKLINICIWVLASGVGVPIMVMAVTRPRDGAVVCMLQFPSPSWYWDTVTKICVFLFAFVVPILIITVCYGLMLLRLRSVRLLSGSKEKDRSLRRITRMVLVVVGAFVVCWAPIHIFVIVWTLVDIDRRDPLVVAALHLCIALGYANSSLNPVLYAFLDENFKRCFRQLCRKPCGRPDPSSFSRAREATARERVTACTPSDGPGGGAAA
Chain of panel of 68 receptors (Homo sapiens, UniProt P25100) (P25100 whole entry): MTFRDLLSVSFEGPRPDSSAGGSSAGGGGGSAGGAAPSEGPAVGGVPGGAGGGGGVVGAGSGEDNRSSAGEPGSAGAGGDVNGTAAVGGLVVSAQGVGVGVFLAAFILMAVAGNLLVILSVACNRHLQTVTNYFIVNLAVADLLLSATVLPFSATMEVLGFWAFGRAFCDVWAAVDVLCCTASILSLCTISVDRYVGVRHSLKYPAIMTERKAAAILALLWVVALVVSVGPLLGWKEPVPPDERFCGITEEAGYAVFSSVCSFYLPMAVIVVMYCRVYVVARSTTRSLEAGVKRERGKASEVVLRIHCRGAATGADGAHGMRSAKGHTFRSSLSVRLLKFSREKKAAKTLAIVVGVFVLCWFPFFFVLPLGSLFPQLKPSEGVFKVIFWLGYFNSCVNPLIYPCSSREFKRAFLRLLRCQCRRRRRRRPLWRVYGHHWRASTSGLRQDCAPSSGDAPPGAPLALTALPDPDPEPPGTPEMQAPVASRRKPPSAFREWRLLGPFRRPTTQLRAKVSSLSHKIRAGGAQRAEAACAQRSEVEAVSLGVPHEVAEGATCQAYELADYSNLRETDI
Chain of panel of 68 receptors (Homo sapiens, UniProt P35408) (P35408 whole entry): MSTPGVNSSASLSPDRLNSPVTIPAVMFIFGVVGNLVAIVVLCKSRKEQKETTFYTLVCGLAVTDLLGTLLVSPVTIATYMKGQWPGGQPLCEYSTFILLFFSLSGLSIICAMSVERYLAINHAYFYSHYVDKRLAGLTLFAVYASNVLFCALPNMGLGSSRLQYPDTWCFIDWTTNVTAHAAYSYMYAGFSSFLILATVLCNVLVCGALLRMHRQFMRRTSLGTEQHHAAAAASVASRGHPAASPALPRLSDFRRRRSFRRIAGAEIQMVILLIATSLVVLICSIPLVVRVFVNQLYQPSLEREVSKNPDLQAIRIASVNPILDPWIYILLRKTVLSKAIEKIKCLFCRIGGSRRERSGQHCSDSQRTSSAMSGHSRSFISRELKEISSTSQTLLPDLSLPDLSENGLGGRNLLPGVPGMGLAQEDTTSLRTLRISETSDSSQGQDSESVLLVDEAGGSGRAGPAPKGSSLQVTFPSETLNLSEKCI

SMILES	% Inh. [1]	% Inh. (panel of 68 receptors [2])	% Inh. (panel of 68 receptors [3])	% Inh. (panel of 68 receptors [4])	% Inh. (panel of 68 receptors [5])	Sensitivity of UTI89 to pooled human serum (MTT) (E. coli UTI89)	Hepatic Microsome Stability, % remaining at 1 hr [6]	inhibition at 100 µM (E. coli K1 strain UTI89; Escherichia coli, read-out: % Inhibition at 100 μM)	IC50 (E. coli K1 strain UTI89; Escherichia coli, read-out: K1 Capsule IC50, commercial sample, SID 103147605)	IC50 (E. coli K1 strain UTI89; Escherichia coli, read-out: K1 Capsule IC50, synthesized sample, SID 126497311)	IC50 (E. coli K1 strain UTI89; Escherichia coli, read-out: K1 phage IC50, first round of synthetic analogues, n = 3)	IC50 (E. coli K1 strain UTI89; Escherichia coli, read-out: K1 phage IC50, purchased analogue series, n = 3)	Selectivity (Cyt./K1) (E. coli K1 strain UTI89; first round of synthetic analogues)	Selectivity (Cyt./K1) (E. coli K1 strain UTI89; purchased analogue series)	Selectivity index (CC50/IC50) (E. coli K1 strain UTI89)	Selectivity index (CC50/IC50) (E. coli K1 strain UTI89; listed as CID 23602075)	selectivity ratio (in vitro; commercial sample, SID 103147605)	selectivity ratio (in vitro; synthesized sample, SID 126497311)
CCOc1ccc(-c2cc(NC(=O)c3c(F)cccc3F)c(C(=O)O)s2)cc1 [KUC107784N-02]	13%	−5%	0%	−4%	2%	–	–	–	–	–	–	–	–	–	–	–	–	–
CCOc1ccc(-c2cc(NC(=O)c3c(F)cccc3F)c(C(=O)O)s2)cc1 [ML317, 3-(2,6-difluorobenzamido)-5-(4-ethoxyphenyl)thiophene-2-carboxylic acid]	–	–	–	–	–	further increased serum-mediated killing; also recorded: significantly more sensitive	74.3 % remaining	9.12%	4.5 ± 2.4 µM	1.89 ± 1.56 µM	1.89 µM	4.5 µM	27.3	10.49	> 10	10.49	10.5	27.3

From patent publication US9688653B2, “Ethoxyphenyl thienyl compounds and methods for the treatment of bacterial infections” (Duke University, priority 2013, dated 2017)
